Values belong to the molecule of their own block, whether it stands above or below them.
Assays:
[1] = Cataract formation after administration of fluoxetine preparations to the eye; type: in vivo
[2] = system: cleavage of pro-caspase-1 into active caspase-1 (NLRP3 inflammasome activation); assay: Western blot of Alu RNA-induced caspase-1 cleavage (inflammasome activation) in BMDMs; type: cell-based; details: mouse BMDMs, 200 μM compound for 1 hour, then Alu RNA transfection overnight, FIG. 1
Procedure: (§1) Cell Stimulation. Bone marrow derived macrophages (BMDMs) were treated with 200 μM Zidovudine (AZT), GAZT, AMT, or LSO for 1 hour. Cells were transfected with Alu RNA overnight using Lipofectamine 3000 (Invitrogen) according to manufacturer's instructions.
Western blotting. Serum free media (1 mL) from stimulated BMDMs was transferred into fresh tubes and centrifuged for 10 min at 12,000 rpm at 4° C. 15 μl of 10% sodium deoxycholate was added to the supernatants, vortexed and kept on ice. 72 μl Trichloroacetic acid (Sigma-Aldrich, St. Louis,. Mo., United States of America) was subsequently added and the tubes were kept on ice overnight. After centrifugation for 30 min at 12,000 rpm at 4° C., the pellet was washed twice with 500 μl ice-cold acetone. The pellet was dried and boiled with LDS Sample Buffer and β-mercaptoethanol (Sigma-Aldrich). The precipitated protein was analyzed by immunoblotting.
The ability of NRTI and NRTI metabolites to inhibit inflammasome activation was tested by western blot.

[3] = system: laser-induced choroidal neovascularization (CNV); assay: Laser-induced choroidal neovascularization, mouse model of neovascular (wet) macular degeneration; type: in vivo; details: wild-type C57BL/6J mice, CNV lesion volume 7 days after laser; FIGS. 3A, 3B, 4
Procedure: (§2) Animals. Both male and female wild-type (WT) C57BL/6J mice (The Jackson Laboratory, Bar Harbor, Me., United States of America) between 6-10 weeks of age were used in this study. For all procedures, anesthesia was achieved by intraperitoneal injection of 100 mg/kg ketamine hydrochloride (Fort Dodge Animal Health, Overland Park, Kans., United States of America) and 10 mg/kg xylazine (Phoenix Scientific, Inc., St. Joseph, Mo., United States of America), and pupils were dilated with topical 1% tropicamide and 2.5% phenylephrine hydrochloride (Alcon Laboratories, Inc., Ft. Worth, Tex., United States of America). All animal experiments were approved by the Institutional Animal Care and Use Committees of the University of Virginia (Charlottesville, Va., United States of America) and was performed in accordance with the Statement for the Use of Animals in Ophthalmic and Visual Research of the Association for Research in Vision and Ophthalmology (Washington, D.C., United States of America).
(§3) Subretinal and intravitreous injections. Subretinal injections (SRI) (1 μl) and intravitreous injections (0.5 μl) in mice were performed using a 35-gauge needle (Ito Co.). In vitro transcribed Alu RNA (300 ng/μl) was injected into the subretinal space via SRI. 1 mM of 3′-Azido-3′-deoxythymidine β-D-glucuronide (GAZT; Cayman Chemical, Ann Arbor, Mich., United States of America), Lamivudine (R)-sulfoxide (LSO; Toronto Research Chemicals, Toronto, Canada) 2 mM of 3′-Amino-3′-deoxythymidine (AMT; Toronto Research Chemicals), or PBS was injected into the vitreous humor. Kamuvudines including but not limited to K-8 (2-Et-AZT) and K-9 (3-Me-3TC, a.k.a. 3-Me-lamivudine) were previously described (see U.S. Pat. No. 10,294,220, which is incorporated herein by reference in its entirety).
Choroidal neovascularization. Experimental choroidal neovascularization (CNV) was induced via laser photocoagulation (OcuLight GL, IRIDEX Corp., Mountain View, Calif., United States of America; 180 mW, 100 ms, 75 μm) in both eyes. The volume of the CNV lesions was measured after 7 days using a scanning laser confocal microscope (A1R Nikon confocal microscope system, Nikon USA, Melville, N.Y., United States of America) after 0.7% FITC-isolectin B4 staining (Vector Laboratories, Burlingame, Calif., United States of America, USA). The volume of each lesion was calculated using FIJI software (Schindelin et al., 2012).
The ability of NRTI, NRTI metabolites, and NRTI analogs to inhibit neovascular (wet) macular degeneration in a mouse model was tested. The results are shown in FIGS. 3A and 3B and in FIG. 4.

[4] = system: retinal pigmented epithelium (RPE); assay: Alu RNA-induced RPE degeneration, mouse model of atrophic (dry) macular degeneration; type: in vivo; details: mice, subretinal Alu RNA, intravitreous 1 mM GAZT or LSO, 2 mM AMT; ZO-1 RPE flat mounts 7 days after injection; FIG. 5
Procedure: as §2, §3

IL-1β release = assay: ELISA of Alu RNA-induced IL-1β release from BMDMs; type: cell-based; details: mouse BMDMs, 200 μM compound for 1 hour, then Alu RNA transfection overnight, FIG. 2
Procedure: as §1
Enzyme-linked immunosorbent assay (ELISA). 1.2 million cells/mL were seeded per well in 6-well cell culture dishes overnight and stimulated as mentioned above. Secreted mouse IL-1β in the medium were detected by ELISA (R&D Systems, Inc., Minneapolis, Minn., United States of America) according to the manufacturer's instructions.
The ability of NRTI and NRTI metabolites to inhibit IL-1β release was tested by ELISA.

subretinal fibrosis = assay: Subretinal fibrosis after laser injury / subretinal Alu RNA in mice; type: in vivo, mouse; details: wild-type mice, intravitreous injection, laser injury with subretinal Alu RNA, collagen type 1 staining after 7 days, FIGS. 6B
Procedure: as §2
Subretinal and intravitreous injections. Subretinal injections (SRI) (1 μl) and intravitreous injections (0.5 μl) in mice were performed using a 35-gauge needle (Ito Co.). […]
Subretinal fibrosis. […] After mounting in slides, the RPE flat mounts were imaged using a scanning laser confocal microscope (A1R Nikon confocal microscope system, Nikon USA) and the volume of each lesion was calculated by FIJI software. […]

cataract formation, share of subjects [1]: up to 50%
SMILES: CNCCC(Oc1ccc(C(F)(F)F)cc1)c1ccccc1 (racemic) [racemic fluoxetine, fluoxetine]

SMILES: Cc1cn([C@H]2C[C@H](N)[C@@H](CO)O2)c(=O)[nH]c1=O [AMT, 3′-Amino-3′-deoxythymidine]
Alu RNA-induced cleavage of pro-caspase-1 (50 kDa band) into active caspase-1 (20 kDa band) [2]: inhibited
laser-induced choroidal neovascularization (CNV) volume [3]: inhibited
Alu RNA-induced RPE degeneration [4]: inhibited
Alu RNA-induced IL-1β release (IL-1β release): inhibited

SMILES: Cc1cn([C@H]2C[C@H](N=[N+]=[N-])[C@@H](CO)O2)c(=O)[nH]c1=O [AZT, 1-[(2R,4S,5S)-4-Azido-5-(hydroxymethyl)oxolan-2-yl]-5-methylpyrimidine-2,4-dione, reference compound]
Alu RNA-induced cleavage of pro-caspase-1 (50 kDa band) into active caspase-1 (20 kDa band) [2]: inhibited
laser-induced choroidal neovascularization (CNV) volume [3]: inhibited
subretinal fibrosis volume (subretinal fibrosis): reduced subretinal fibrosis volume
Alu RNA-induced IL-1β release (IL-1β release): inhibited

SMILES: Cc1cn([C@H]2C[C@H](N=[N+]=[N-])[C@@H](CO[C@@H]3O[C@H](C(=O)O)[C@@H](O)[C@H](O)[C@H]3O)O2)c(=O)[nH]c1=O [GAZT, 3′-Azido-3′-deoxythymidine β-D-glucuronide]
Alu RNA-induced cleavage of pro-caspase-1 (50 kDa band) into active caspase-1 (20 kDa band) [2]: inhibited
laser-induced choroidal neovascularization (CNV) volume [3]: inhibited
Alu RNA-induced RPE degeneration [4]: inhibited
Alu RNA-induced IL-1β release (IL-1β release): inhibited

SMILES: CCOC[C@H]1O[C@@H](n2cc(C)c(=O)n(CC)c2=O)C[C@@H]1N=[N+]=[N-] [Kamuvudine K-8, 1-[(2R,4S,5S)-4-azide-5-(ethoxymethyl)oxolan-2-yl)-3-ethyl-5-methyl-1,2,3,4-etrahydropyrimidine-2,4-dione]
laser-induced choroidal neovascularization (CNV) volume [3]: inhibited
subretinal fibrosis volume (subretinal fibrosis): reduced the volume of subretinal fibrosis

SMILES: CCOCC1OC(n2ccc(N(CC)CC)nc2=O)CS1 (stereo not drawn) [Kamuvudine K-9]
laser-induced choroidal neovascularization (CNV) volume [3]: inhibited

SMILES: Nc1ccn([C@@H]2C[S@@+]([O-])[C@H](CO)O2)c(=O)n1 [LSO, Lamivudine (R)-sulfoxide]
Alu RNA-induced RPE degeneration [4]: inhibited
Alu RNA-induced IL-1β release (IL-1β release): inhibited

Reference: patent US20230172962A1, “NRTIS, NRTI METABOLITES, AND NRTI ANALOGS FOR MACULAR DEGENERATION AND VIRAL INFECTIONS” (priority 2020, published 2023)
